Patent US20090048179A1, “USE OF 5-PHOSPHODIESTERASE INHIBITORS TO ENHANCE THE PERMEABILITY OF THE BLOOD-BRAIN BARRIER OF ABNORMAL BRAIN TISSUE AND THE BLOOD-TUMOR BARRIER” (CEDARS-SINAI MEDICAL CENTER, priority 2005, published 2009)
Where a name gives a salt, the structure may show the parent alone. No end group written: not given here.

Tests used:
[1] = tested on: blood-tumor barrier (BTB) of 9L gliosarcoma brain tumors; assay: [14C] sucrose transport (Ki) from blood into 9L brain tumors, quantitative autoradiography; format: in vivo, rat
[2] = tested on: caveolae endocytosis; assay: In vitro cellular transport of 14C-sucrose with inhibitor of caveolae endocytosis; format: cell-based
Description: To determine whether this is the case for PDE5 inhibitors, the inventor used filipin, an inhibitor of caveolae endocytosis, in the in vitro cellular transport study (FIG. 21; P<0.05 vs. other two treatments). As shown, fillipin abolished the increased transport of ^14C-sucrose by sildenafil. […] As vesicular transport is not specific to brain microvessels per se, the inventor, while not wishing to be bound by any particular theory, believes the mechanism may be responsible for the increased cellular permeability by PDE5 inhibitors in non-CNS cells studied above.

[3] = Animal physiologic parameters (mean arterial blood pressure, blood gases, side effects); format: in vivo, rat; conditions: for reduction in mean-arterial blood pressure: BK femoral infusion, sildenafil 5-100 mg/kg or vardenafil 1-20 mg/kg oral; for detectable side effects (e.g. hypotension): oral doses used in the rats
Description: For Ki study described below, six days after tumor implantation, the rats were anesthetized with ketamine/xylazine. One femoral vein was cannulated for administration of the appropriate drug and the radiotracer; one femoral artery was cannulated to withdraw arterial blood, and another femoral artery was cannulated to monitor systemic blood pressure. Body temperature was maintained at 37° C., and arterial blood gases, blood pressure and hematocrit were monitored.
Mean-arterial blood pressures were decrease approximately 30% secondary to the femoral infusion of BK.

[4] = tested on: cGMP; assay: Plasma cGMP assay in 9L tumor-bearing rats; format: in vivo, rat
Description: cGMP levels were determined using a ELISA-based kit (Cayman Chemical Co., Ann Arbor, Mich.) for plasma and immunohistocytochemistry with anti-cGMP antibody (Chemicon Corp.) for tissue sections.
Intracerebral inoculations of 9L tumor cells were performed as described above. […] Different groups of rats were anesthetized 5 minutes before and at 30, 60, 90 and 120 minutes after treatment respectively and the femoral vein was cannulated. Blood was collected and the plasma was separated. The cGMP concentration in the plasma was determined using a commercially available ^125I-labeled cGMP assay kit (Amersham, Arlington Heights, Ill.). cGMP content was expressed as pmol/ml of plasma.

[5] = tested on: cGMP; assay: Brain cGMP immunohistochemistry in 9L tumor-bearing rats; format: in vivo, rat; conditions: oral vardenafil 10 mg/kg
[6] = tested on: 9L glioma; assay: Survival study, 9L/Fischer rats, treatment on days 7, 8 and 9 post tumor implantation; format: in vivo, rat; conditions: treatment on days 7, 8 & 9; Levitra 10 mg/kg oral, Adriamycin 2 mg/kg i.v.; control 21.8
Description: Adult, female Fischer rats (180-200 g) were implanted with 9L glioma cells (100,000 cells). […] 15, 2006.
Rats were monitored daily to determine survival times of the tumor-bearing rats for either death or when animals became moribund, euthanasia was employed.

[7] = tested on: 9L gliosarcoma; assay: Survival study, 9L/Luc gliosarcoma-bearing rats, treatment for three days from day 4; format: in vivo, rat; conditions: vardenafil 10 mg/kg oral, Adriamycin 2 mg/kg i.v., saline 32±2
Description: A p-value of less than 0.05 was considered statistically significant.

[8] = tested on: 9L gliosarcoma (9L/Luc); assay: Tumor size monitoring by bioluminescence imaging and histology; conditions: day 9 after the last treatment; saline (2.21±1.27)×10^6
[9] = tested on: mouse brain endothelial cells; assay: In vitro cellular transport of 14C-sucrose, brain endothelial cells; format: cell-based
[10] = tested on: vessel endothelial cells derived from lung tissues (PVEC); assay: In vitro cellular transport of 14C-sucrose, lung vessel endothelial cells; format: cell-based; conditions: PVECs
[11] = tested on: human brain metastatic lung cancer cell line CRL-5904; assay: In vitro 14C-sucrose transport across tumor cells in transwell, CRL-5904; format: cell-based
Description: (§1) In addition to endothelial cells, the inventor tested whether the inhibition of PDE5 has any effect on tracer transport in other tumor cells. In the studies, two tumor cell lines (human brain metastatic lung cancer cell line CRL-5904 and human breast cancer cell line MDA-MB-231) were tested.

[12] = tested on: human breast cancer cell line MDA-MB-231; assay: In vitro 14C-sucrose transport across tumor cells in transwell, MDA-MB-231; format: cell-based
Description: as §1

[13] = femoral infusion of BK or oral sildenafil or vardenafil

Question: With “iberiotoxin (QFTDVDCSVSKECWSVCKDLFGVDRGKCMGKKCRCYQ; UniProt P24663 1-37, looked up)” as the molecule, how does the “effect on vardenafil-induced BTB transport increase” value ([1]; iberiotoxin 0.26 μg/kg/min infused 15 min with oral vardenafil 10 mg/kg) read?
Answer: abolished

Question: Which “effect on the increased transport of 14C-sucrose by sildenafil” value [2] does the source give for `CCCCC[C@@H](O)[C@H]1C(=O)O[C@H](C)[C@@H](O)/C=C/C=C/C=C/C=C/C=C(\C)[C@@H](O)C[C@H](O)C[C@H](O)C[C@H](O)C[C@H](O)C[C@H](O)C[C@@H]1O` [fillipin, filipin] here?
Answer: abolished

Question: What does the source list for `CCCc1nc(C)c2c(=O)[nH]c(-c3cc(S(=O)(=O)N4CCN(CC)CC4)ccc3OCC)nn12` [vardenafil]?
Answer: reduction in mean-arterial blood pressure [3]: 10%; arterial blood pH, carbon dioxide, and partial pressure of oxygen [3, 13]: not changed significantly; detectable side effects (e.g. hypotension) [3]: did not result in any detectable side effects; detectable side effects (e.g. hypotension) ([3]; listed as Levitra®): did not induce hypotension; plasma cGMP level ([4]; 30 minutes after oral vardenafil 10 mg/kg, control 0.72±0.48): 54.96 ± 25.13 pg/mL; plasma cGMP level ([4]; 60 minutes after oral vardenafil 10 mg/kg): 79.20 ± 37.36 pg/mL; plasma cGMP level ([4]; 90 minutes after oral vardenafil 10 mg/kg): 30.13 ± 17.82 pg/mL; time of peak plasma cGMP concentration ([4]; oral vardenafil 10 mg/kg): 60 min; time at which tumor cGMP immunostaining returned to the baseline [5]: 90 min; Mean Survival Days, Mean [6]: 22.7 days; mean survival time [7]: 35 ± 1 days

Question: Which “arterial blood pH, carbon dioxide, and partial pressure of oxygen” value ([3]; rat, in vivo, po) does the source give for RPPGFSPFR [BK, Bradykinin] here?
Answer: not changed significantly

Question: Which “Mean Survival Days, Mean” value [6] does the source give for `COc1cccc2c1C(=O)c1c(O)c3c(c(O)c1C2=O)C[C@@](O)(C(=O)CO)C[C@@H]3O[C@H]1C[C@H](N)[C@H](O)[C@H](C)O1` [Adriamycin® (doxorubicin), doxorubicin hydrochloride] here?
Answer: 30 days

Question: And the mean survival time [7]?
Answer: 42 ± 2 days

Question: What about the “intracerebral tumor size (IVIS bioluminescence)” value [8] of the same molecule?
Answer: (1.03±0.28)×10^6

Question: What does the source list for `CCCc1nn(C)c2c(=O)[nH]c(-c3cc(S(=O)(=O)N4CCN(C)CC4)ccc3OCC)nc12` [sildenafil]?
Answer: dose giving maximal effect on permeability ([1]; rat, in vivo): 50 mg/kg; increase in BTB permeability ([1]; rat, in vivo): 1.8 fold; time of maximum transport across the BTB into tumor tissues after administration ([1]; rat, in vivo): 60 min; reduction in mean-arterial blood pressure [3]: 10%; arterial blood pH, carbon dioxide, and partial pressure of oxygen [3, 13]: not changed significantly; detectable side effects (e.g. hypotension) [3]: did not result in any detectable side effects; detectable side effects (e.g. hypotension) ([3]; listed as Viagra®): did not induce hypotension; 14C-sucrose transport [9]: significantly increased; 14C-sucrose transport [10]: significantly increased; 14C-sucrose transport across cells seeded in the transwell [11]: increased; 14C-sucrose transport across cells seeded in the transwell [12]: increased
